Measurements taken from patent publication US9604925B2, “Class II HMG-CoA reductase inhibitors and methods of use” (Purdue Research Foundation, priority 2012, dated 2017).
Values after ≈ are worked out from the molar mass of the structure shown. Marks after values point to notes of the source that are not given here.

How the values were obtained:
[1] = tested on: C. elegans infected with VRE; assay: Treatment of C. elegans infected with VRE; conditions: VRE-infected worms, 100 μM; for Log CFU/worm: 16 hours treatment; for Log Reduction: versus DMSO control
[2] = tested on: Staphylococcus aureus ATCC 6538 adherent organisms (biofilm); assay: MIC/MBC in adherent-cell biofilm of S. aureus ATCC 6538; assay type: cell-based; conditions: for Adherent organisms (biofilm) MIC^b: S. aureus ATCC 6538, 20 h; for Adherent organisms (biofilm) MBC^b: S. aureus ATCC 6538, regrowth 20 h in antibiotic-free MHB
Procedure: An adherent biofilm for susceptibility testing was formed using a clinical isolate of Staphylococcus aureus (ATCC 6538). S. aureus biofilms were prepared in a tissue culture non-treated polystyrene 96-well plate (Corning) and washed with phosphate-buffered saline (PBS) to remove unbound bacteria. Subsequently, serial twofold dilutions of the compounds in MHB were added to wells containing adherent organisms. The polystyrene plates were incubated for 20 h at 37° C. The MIC was taken as the lowest drug concentration at which observable growth was inhibited.

S. aureus HMGR = S. aureus HMGR (Staphylococcus aureus, UniProt Q9FD86); assay: biochemical
Chain of S. aureus HMGR (Q9FD86 entry or part of it): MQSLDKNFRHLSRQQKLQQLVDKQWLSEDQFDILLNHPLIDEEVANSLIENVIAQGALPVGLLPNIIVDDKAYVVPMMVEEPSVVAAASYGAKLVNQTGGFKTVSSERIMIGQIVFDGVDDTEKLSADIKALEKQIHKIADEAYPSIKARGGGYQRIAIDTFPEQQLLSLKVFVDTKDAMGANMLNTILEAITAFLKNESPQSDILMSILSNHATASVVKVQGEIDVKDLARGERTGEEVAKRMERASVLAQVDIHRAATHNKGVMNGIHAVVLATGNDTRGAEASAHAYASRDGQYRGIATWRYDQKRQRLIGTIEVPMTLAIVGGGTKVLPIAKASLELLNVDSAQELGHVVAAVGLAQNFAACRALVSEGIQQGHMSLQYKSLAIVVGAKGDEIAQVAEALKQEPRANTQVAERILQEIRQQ

[3] = tested on: vancomycin resistant Enterococcus faecalis (VRE) ATCC 51299; assay: MIC/MBC micro dilution against VRE; conditions: VRE ATCC 51299, MHB, 20 hours
[4] = tested on: methicillin-resistant Staphylococcus aureus (MRSA) ATCC 43300; assay: MIC/MBC micro dilution against MRSA; conditions: for MRSA MBC: MRSA ATCC 43300, MHB, 20 hours, Table 2; for MBC / MIC: Staphylococcus aureus; for MBC, μM: MRSA, Table 1
[5] = tested on: Staphylococcus aureus ATCC 6538 planktonic organisms (not in biofilm); assay: MIC/MBC against planktonic S. aureus ATCC 6538; assay type: cell-based
J774A.1 cells = assay: In vitro cell viability/cytotoxicity MTS assay; assay type: cell-based; conditions: 100 μM, 24 hours
Procedure: Cytotoxicity of the compounds was evaluated using J774A.1 cells (mitochondrial function) in the CellTiter 96® AQueous Non-Radioactive Cell Proliferation Assay (Promega). […] Formazan is measured by measuring the absorbance at 490 nm. Briefly, ˜2×10^4 J774A.1 cells suspended in 200 μL DMEM supplemented with 10% fetal bovine serum (FBS), L-glutamine, NaHCO3, pyridoxine-HCl, and […] glucose and preserved with 1% penicillin-streptomycin solution were seeded in 96-well plates and incubated at 37° C. in a 5% CO2 atmosphere. The cells were cultured for 24 hours (60% confluency) before the assays. The J774A.1 cells were further incubated with 100 μM of compounds (2f, […], 2j, and 2e) and DMSO as a control for 24 hours. The culture media was discarded, and the cells in each well were washed with PBS and re-suspended with 100 μL of cell culture media prior to addition of the assay reagent. The plates were incubated for 4 hours at 37° C. in a humidified 5% CO2 atmosphere. The absorbance at 490 nm was recorded using a 96-well Elisa plate reader (SoftMax ProInc., USA). Results were expressed as the percentage mean absorbance by cells upon incubation with various treatments (compounds 2f, 2j, 2i, and 2e) with respect to incubation with DMSO. The results are expressed as means from six measurements±SD.

[6] = tested on: vancomycin intermediate Staphylococcus aureus (VISA) NRS1; assay: MIC/MBC against clinical VISA isolate
[7] = tested on: clinical methicillin-resistant Staphylococcus aureus (MRSA) isolates; assay: MIC/MBC against clinical MRSA isolates
[8] = tested on: C. elegans infected with MRSA; assay: Treatment of C. elegans infected with MRSA; conditions: MRSA-infected worms, 100 μM; for Log CFU/worm: 16 hours treatment; for Log Reduction: versus DMSO control
[9] = tested on: Candida albicans ATCC 18804; assay: MIC/MFC against Candida albicans in YM broth; assay type: cell-based; conditions: yeast medium broth
Procedure: Antifungal activities of 22 HMG-CoA Reductase inhibitors were initially tested at 100 μM concentration against Candida albicans ATCC 18804.

SMILES: CC(=O)NC[C@H]1CN(c2ccc(N3CCOCC3)c(F)c2)C(=O)O1 [Linezolid, linezolid, reference compound]
- Log CFU/worm [1]: 1.47 ± 0.06 Log CFU/worm
- Log Reduction [1]: 3.43*
- Adherent organisms (biofilm) MIC^b [2]: 4 µM
- Adherent organisms (biofilm) MBC^b [2]: 16 µM

SMILES: CCc1ccc(NS(=O)(=O)c2ccc(O)c(C(=O)O)c2)cc1 [Compound 2a, 5-[N-(4-ethylphenyl)sulfamoyl]-2-hydroxybenzoic acid]
- IC50, μM (S. aureus HMGR): ^d (No significant inhibition of HMGR activity was observed at the concentrations tested.)

SMILES: CCCCCCCCCCCCc1ccc(NS(=O)(=O)c2ccc(O)c(C(=O)O)c2)cc1 [Compound 2g, 5-[N-(4-dodecylphenyl)sulfamoyl]-2-hydroxybenzoic acid]
- VRE MBC [3]: 128/128
- IC50 (S. aureus HMGR): 5.9 ± 0.5 µM
- MRSA MBC [4]: 128/>128
- MBC [4]: 128 µM (≈ 59.1 µg/mL)
- MIC [4]: 128 µM (≈ 59.1 µg/mL)

SMILES: CCCCCCCCCCCCCCc1ccc(NS(=O)(=O)c2ccc(O)c(C(=O)O)c2)cc1 [Compound 2h, 2-hydroxy-5-[N-(4-tetradecylphenyl)sulfamoyl]benzoic acid]
- IC50 (S. aureus HMGR): 1.9 µM
- improvement of IC50 over lead compound 1 (S. aureus HMGR): 45 fold
- MBC, μM [4]: lost bactericidal activity

SMILES: CCCCCc1ccc(NS(=O)(=O)c2ccc(O)c(C(=O)O)c2)cc1 [Compound 2c, 2-hydroxy-5-[N-(4-pentylphenyl)sulfamoyl]benzoic acid]
- IC50 (S. aureus HMGR): 98 ± 3 µM

SMILES: O=C(O)c1cc(S(=O)(=O)Nc2ccc(CCc3ccccc3)cc2)ccc1O [Compound 2m, 2-hydroxy-5-[N-(4-phenethylphenyl)sulfamoyl]benzoic acid]
- MBC, μM [4]: no enzymatic inhibition or bactericidal activity

SMILES: CC(C)(C)CCc1ccc(NS(=O)(=O)c2ccc(O)c(C(=O)O)c2)cc1 [Compound 2k, 5-[N-(4-(3,3-dimethylbutyl)phenyl)sulfamoyl]-2-hydroxybenzoic acid]
- VRE MBC [3]: 128/128
- MBC, μM [4]: failed to exhibit any activity

SMILES: CC(C)CCCc1ccc(NS(=O)(=O)c2ccc(O)c(C(=O)O)c2)cc1 [Compound 2i, 2-hydroxy-5-[N-(4-(4-methylpentyl)phenyl]sulfamoyl)benzoic acid]
- IC50 (S. aureus HMGR): 36 ± 4 µM
- Planktonic organisms (not in biofilm) MBC [5]: 128 µM
- Planktonic organisms (not in biofilm) MIC [5]: 128 µM
- Adherent organisms (biofilm) MIC^b [2]: 128 µM
- Adherent organisms (biofilm) MBC^b [2]: 128 µM
- percentage mean absorbance at 490 nm (MTS) versus DMSO (J774A.1 cells): no significant differences in percentage mean absorption
- MIC [4]: 64 µM (≈ 24.2 µg/mL)

SMILES: O=C(O)c1cc(S(=O)(=O)Nc2ccc(CCC3CCCCC3)cc2)ccc1O [Compound 2l, 5-[N-(4-(2-cyclohexylethyl)phenyl)sulfamoyl]-2-hydroxybenzoic acid]
- VRE MBC [3]: 64/64
- IC50 (S. aureus HMGR): 16.2 ± 10 µM
- Log CFU/worm [1]: 0.43 ± 0.68 Log CFU/worm
- Log Reduction [1]: 4.47*
- MBC [6]: 16 µM (≈ 6.46 µg/mL)
- MIC [6]: 16 µM (≈ 6.46 µg/mL)
- MBC ([7]; MRSA / NRS123 / USA400): 16 µM (≈ 6.46 µg/mL)
- MIC ([7]; MRSA / NRS123 / USA400): 16 µM (≈ 6.46 µg/mL)
- MBC ([7]; MRSA / NRS382 / USA100): 16 µM (≈ 6.46 µg/mL)
- MIC ([7]; MRSA / NRS382 / USA100): 16 µM (≈ 6.46 µg/mL)
- MBC ([7]; MRSA / NRS383 / USA200): 16 µM (≈ 6.46 µg/mL)
- MIC ([7]; MRSA / NRS383 / USA200): 16 µM (≈ 6.46 µg/mL)
- MBC ([7]; MRSA / NRS384 / USA300): 16 µM (≈ 6.46 µg/mL)
- MIC ([7]; MRSA / NRS384 / USA300): 16 µM (≈ 6.46 µg/mL)
- MBC ([7]; MRSA / NRS385 / USA500): 16 µM (≈ 6.46 µg/mL)
- MIC ([7]; MRSA / NRS385 / USA500): 16 µM (≈ 6.46 µg/mL)
- MBC ([7]; MRSA / NRS386 / USA700): 16 µM (≈ 6.46 µg/mL)
- MIC ([7]; MRSA / NRS386 / USA700): 16 µM (≈ 6.46 µg/mL)
- MBC ([7]; MRSA / NRS387 / USA800): 16 µM (≈ 6.46 µg/mL)
- MIC ([7]; MRSA / NRS387 / USA800): 16 µM (≈ 6.46 µg/mL)
- MBC ([7]; MRSA / NRS483): 16 µM (≈ 6.46 µg/mL)
- MIC ([7]; MRSA / NRS483): 8 µM (≈ 3.23 µg/mL)
- MBC ([7]; MRSA / NRS484): 16 µM (≈ 6.46 µg/mL)
- MIC ([7]; MRSA / NRS484): 16 µM (≈ 6.46 µg/mL)
- Log CFU/worm [8]: 2.20 ± 0.43 Log CFU/worm
- Log Reduction [8]: 2.84*
- MRSA MBC [4]: 32/32
- MBC [4]: 32 µM (≈ 12.9 µg/mL)
- MIC [4]: 32 µM (≈ 12.9 µg/mL)

SMILES: CCCCc1ccc(NS(=O)(=O)c2ccc(OCC(N)=O)c(C(=O)O)c2)cc1 [Compound 3, 5-[N-(4-butylphenyl)sulfamoyl]-2-(carbamoylmethoxy)benzoic acid]
- MBC, μM [4]: failed to show any enzymatic inhibition or bactericidal activity

SMILES: CCCCCCc1ccc(NS(=O)(=O)c2ccc(O)c(C(=O)O)c2)cc1 [Compound 2d, 5-[N-(4-hexylphenyl)sulfamoyl]-2-hydroxybenzoic acid]
- IC50 (S. aureus HMGR): 77 ± 6 µM
- Planktonic organisms (not in biofilm) MBC [5]: 128 µM
- Planktonic organisms (not in biofilm) MIC [5]: 128 µM
- Adherent organisms (biofilm) MIC^b [2]: 128 µM
- Adherent organisms (biofilm) MBC^b [2]: >128 µM
- MRSA MBC [4]: 128/128
- MBC [4]: 128 µM (≈ 48.3 µg/mL)
- MIC [4]: 128 µM (≈ 48.3 µg/mL)

SMILES: CCCc1ccc(NS(=O)(=O)c2ccc(O)c(C(=O)O)c2)cc1 [Compound 2b, 2-hydroxy-5-[N-(4-propylphenyl)sulfamoyl]benzoic acid]
- IC50, μM (S. aureus HMGR): ^d (No significant inhibition of HMGR activity was observed at the concentrations tested.)

SMILES: CCCCCCCc1ccc(NS(=O)(=O)c2ccc(O)c(C(=O)O)c2)cc1 [Compound 2e, 5-[N-(4-heptylphenyl)sulfamoyl]-2-hydroxybenzoic acid]
- VRE MBC [3]: 64/64
- IC50 (S. aureus HMGR): 28 µM
- Planktonic organisms (not in biofilm) MBC [5]: 64 µM
- Planktonic organisms (not in biofilm) MIC [5]: 64 µM
- Log CFU/worm [1]: 0.86 ± 1.03 Log CFU/worm
- Log Reduction [1]: 4.04*
- Adherent organisms (biofilm) MIC^b [2]: 64 µM
- Adherent organisms (biofilm) MBC^b [2]: 128 µM
- MBC [6]: 16 µM (≈ 6.26 µg/mL)
- MIC [6]: 16 µM (≈ 6.26 µg/mL)
- MBC ([7]; MRSA / NRS123 / USA400): 32 µM (≈ 12.5 µg/mL)
- MIC ([7]; MRSA / NRS123 / USA400): 32 µM (≈ 12.5 µg/mL)
- MBC ([7]; MRSA / NRS382 / USA100): 32 µM (≈ 12.5 µg/mL)
- MIC ([7]; MRSA / NRS382 / USA100): 32 µM (≈ 12.5 µg/mL)
- MBC ([7]; MRSA / NRS383 / USA200): 32 µM (≈ 12.5 µg/mL)
- MIC ([7]; MRSA / NRS383 / USA200): 16 µM (≈ 6.26 µg/mL)
- MBC ([7]; MRSA / NRS384 / USA300): 32 µM (≈ 12.5 µg/mL)
- MIC ([7]; MRSA / NRS384 / USA300): 32 µM (≈ 12.5 µg/mL)
- MBC ([7]; MRSA / NRS385 / USA500): 16 µM (≈ 6.26 µg/mL)
- MIC ([7]; MRSA / NRS385 / USA500): 16 µM (≈ 6.26 µg/mL)
- MBC ([7]; MRSA / NRS386 / USA700): 32 µM (≈ 12.5 µg/mL)
- MIC ([7]; MRSA / NRS386 / USA700): 32 µM (≈ 12.5 µg/mL)
- MBC ([7]; MRSA / NRS387 / USA800): 32 µM (≈ 12.5 µg/mL)
- MIC ([7]; MRSA / NRS387 / USA800): 16 µM (≈ 6.26 µg/mL)
- MBC ([7]; MRSA / NRS483): 32 µM (≈ 12.5 µg/mL)
- MIC ([7]; MRSA / NRS483): 16 µM (≈ 6.26 µg/mL)
- MBC ([7]; MRSA / NRS484): 32 µM (≈ 12.5 µg/mL)
- MIC ([7]; MRSA / NRS484): 16 µM (≈ 6.26 µg/mL)
- Candida albicans MFC [9]: 128 µM
- Candida albicans MIC [9]: 64 µM
- percentage mean absorbance at 490 nm (MTS) versus DMSO (J774A.1 cells): no significant differences in percentage mean absorption
- Log CFU/worm [8]: 1.80 ± 0.10 Log CFU/worm
- Log Reduction [8]: 3.24*
- MRSA MBC [4]: 64/64
- MBC [4]: 64 µM (≈ 25.1 µg/mL)
- MIC [4]: 64 µM (≈ 25.1 µg/mL)
